Test system: morphine analgesia
Assay: Increase in analgesia of morphine, Tail Flick Test (Experiment 1)
Type: in vivo, rats
Conditions: for percentage variation of latency of pain sensation / M (10-90) ± SE, mean percentage variation of latency: compound 10 mg/kg i.p. + morphine 2 mg/kg; for M (10-90) ± SE, mean percentage variation of latency: mean 10-90 min; for Power ratio with respect to morphine alone: rat, in vivo
Procedure: Experiment No: 1 Increase in analgesia of analgesic-narcotic drugs in rats by the Tail Flick Test
The method is that described by Harris et al. (J. Pharmacol. Exp. Ther. 143 (1964) 141-148).
Male rats are used having a weight of about 150-200 g which have not fasted. A point on the tail is chosen and irradiated by a heat source (75° C.) and the time (in seconds) for which the animal remains without moving its tail is measured.
A maximum period of time of 8 seconds under the heat source is chosen, after which the animal is, in any case, removed to avoid tissue damage. The measurement is effected before (controls) and after treatment with the drugs.
The percentage variation is calculated for each individual animal by the following formula: [formula] The measurements were carried out 10, 20, 30, 45, 60 and 90 minutes after treatment with the analgesics.

CCCNC(=O)C(CCC(=O)O)NC(=O)c1ccc(C)c(C)c1 (centres unmarked) [Compound C-45]
percentage variation of latency of pain sensation (10'): 57.2 ± 18% | percentage variation of latency of pain sensation (20'): 99.7 ± 0.3% | percentage variation of latency of pain sensation (30'): 95.7 ± 4% | percentage variation of latency of pain sensation (45'): 93.1 ± 7% | percentage variation of latency of pain sensation (60'): 77.7 ± 11% | percentage variation of latency of pain sensation (90'): 80.4% | M (10-90) ± SE, mean percentage variation of latency: 84.0 ± 16% | Power ratio with respect to morphine alone: 2.82

CCCN(CCC)C(=O)C(CCC(=O)O)NC(=O)c1ccc(CC(C)C)cc1 (centres unmarked) [Compound C-38]
percentage variation of latency of pain sensation (10'): 53.8% | percentage variation of latency of pain sensation (20'): 85.7 ± 10% | percentage variation of latency of pain sensation (30'): 92.0 ± 8% | percentage variation of latency of pain sensation (45'): 99.1 ± 1% | percentage variation of latency of pain sensation (60'): 91.2 ± 9% | percentage variation of latency of pain sensation (90'): 51.1 ± 14% | M (10-90) ± SE, mean percentage variation of latency: 78.8% | Power ratio with respect to morphine alone: 2.64

CCCCNC(=O)C(CCC(=O)O)NC(=O)c1ccc(CCC)cc1 (centres unmarked) [Compound C-44]
percentage variation of latency of pain sensation (10'): -1.6 ± 11% | percentage variation of latency of pain sensation (20'): 17.0 ± 6% | percentage variation of latency of pain sensation (30'): 24.9% | percentage variation of latency of pain sensation (45'): 26.9 ± 19% | percentage variation of latency of pain sensation (60'): 35.1 ± 17% | percentage variation of latency of pain sensation (90'): 39.8 ± 8% | M (10-90) ± SE, mean percentage variation of latency: 23.7 ± 15% | Power ratio with respect to morphine alone: 0.79

CCCCNC(=O)C(CCC(=O)O)NC(=O)c1ccc(CC)cc1 (centres unmarked) [Compound C-43]
percentage variation of latency of pain sensation (10'): 54.1 ± 17% | percentage variation of latency of pain sensation (20'): 44.4 ± 23% | percentage variation of latency of pain sensation (30'): 38.9 ± 26% | percentage variation of latency of pain sensation (45'): 36.8 ± 27% | percentage variation of latency of pain sensation (60'): 47.8 ± 23% | percentage variation of latency of pain sensation (90'): 22.5 ± 13% | M (10-90) ± SE, mean percentage variation of latency: 40.7 ± 11% | Power ratio with respect to morphine alone: 1.36

CCN(CC)C(=O)C(CCC(=O)O)NC(=O)c1ccc(C)c(C)c1 (centres unmarked) [Compound C-40]
percentage variation of latency of pain sensation (10'): 43.8 ± 15% | percentage variation of latency of pain sensation (20'): 69.1% | percentage variation of latency of pain sensation (30'): 49.0 ± 23% | percentage variation of latency of pain sensation (45'): 85.6 ± 6% | percentage variation of latency of pain sensation (60'): 76.5 ± 17% | percentage variation of latency of pain sensation (90'): 61.5 ± 14% | M (10-90) ± SE, mean percentage variation of latency: 64.2 ± 16% | Power ratio with respect to morphine alone: 2.15

CC(C)c1ccc(C(=O)NC(CCC(=O)O)C(=O)NC2CCCCC2)cc1 (centres unmarked) [Compound C-49]
percentage variation of latency of pain sensation (10'): 62.1 ± 9% | percentage variation of latency of pain sensation (20'): 100.0 ± 0% | percentage variation of latency of pain sensation (30'): 97.6 ± 2% | percentage variation of latency of pain sensation (45'): 99.5 ± 0.5% | percentage variation of latency of pain sensation (60'): 99.2 ± 0.5% | percentage variation of latency of pain sensation (90'): 65.8 ± 0.8% | M (10-90) ± SE, mean percentage variation of latency: 87.4% | Power ratio with respect to morphine alone: 2.93

CCCCNC(=O)CCC(NC(=O)c1ccc(CC)cc1)C(=O)O [Compound D-13]
percentage variation of latency of pain sensation (10'): 7.1 ± 8% | percentage variation of latency of pain sensation (20'): 32% | percentage variation of latency of pain sensation (30'): 62.5 ± 23% | percentage variation of latency of pain sensation (45'): 31.8 ± 21% | percentage variation of latency of pain sensation (60'): 48.5 ± 22% | percentage variation of latency of pain sensation (90'): 50.9 ± 14% | M (10-90) ± SE, mean percentage variation of latency: 38.8 ± 20% | Power ratio with respect to morphine alone: 1.30

Cc1ccc(C(=O)NC(CCC(=O)O)C(=O)N2CCCCC2)cc1C (centres unmarked) [Compound C-52]
percentage variation of latency of pain sensation (10'): 72.8 ± 15% | percentage variation of latency of pain sensation (20'): 95.8 ± 3% | percentage variation of latency of pain sensation (30'): 96.3 ± 4% | percentage variation of latency of pain sensation (45'): 85.5 ± 10% | percentage variation of latency of pain sensation (60'): 87.6% | percentage variation of latency of pain sensation (90'): 45.3 ± 6% | M (10-90) ± SE, mean percentage variation of latency: 80.6 ± 19% | Power ratio with respect to morphine alone: 2.70

CCCCN(CCCC)C(=O)C(CCC(=O)O)NC(=O)c1cccc(C)c1 (centres unmarked) [Compound C-53]
percentage variation of latency of pain sensation (10'): 31.2 ± 15% | percentage variation of latency of pain sensation (20'): 46.7 ± 28% | percentage variation of latency of pain sensation (30'): 70.2 ± 23% | percentage variation of latency of pain sensation (45'): 76.9 ± 22% | percentage variation of latency of pain sensation (60'): 45.6 ± 27% | percentage variation of latency of pain sensation (90'): 12.6 ± 25% | M (10-90) ± SE, mean percentage variation of latency: 47.2 ± 24% | Power ratio with respect to morphine alone: 1.58

Cc1ccc(C(=O)NC(CCC(=O)O)C(=O)N(C)C)cc1C (centres unmarked) [Compound C-50]
percentage variation of latency of pain sensation (10'): 22.3 ± 13% | percentage variation of latency of pain sensation (20'): 68.9 ± 9% | percentage variation of latency of pain sensation (30'): 60.2 ± 19% | percentage variation of latency of pain sensation (45'): 49.4 ± 14% | percentage variation of latency of pain sensation (60'): 73.5 ± 15% | percentage variation of latency of pain sensation (90'): 24.7 ± 6% | M (10-90) ± SE, mean percentage variation of latency: 49.8 ± 22% | Power ratio with respect to morphine alone: 1.67

CCCCNC(=O)CCC(NC(=O)c1ccc(CCC)cc1)C(=O)O [Compound D-14]
percentage variation of latency of pain sensation (10'): 69.2 ± 14% | percentage variation of latency of pain sensation (20'): 93.4 ± 7% | percentage variation of latency of pain sensation (30'): 46.8 ± 15% | percentage variation of latency of pain sensation (45'): 71.3 ± 17% | percentage variation of latency of pain sensation (60'): 89.1 ± 9% | percentage variation of latency of pain sensation (90'): 60.3% | M (10-90) ± SE, mean percentage variation of latency: 71.1 ± 14% | Power ratio with respect to morphine alone: 2.41

Cc1ccc(C(=O)NC(CCC(=O)O)C(=O)N2CCOCC2)cc1C (centres unmarked) [Compound C-51]
percentage variation of latency of pain sensation (10'): 78.7 ± 18% | percentage variation of latency of pain sensation (20'): 82.8% | percentage variation of latency of pain sensation (30'): 90.5 ± 10% | percentage variation of latency of pain sensation (45'): 86.4 ± 14% | percentage variation of latency of pain sensation (60'): 65.6 ± 13% | percentage variation of latency of pain sensation (90'): 48.5 ± 10% | M (10-90) ± SE, mean percentage variation of latency: 75.4 ± 16% | Power ratio with respect to morphine alone: 2.53

CCCNC(=O)CCC(NC(=O)c1ccc(C)c(C)c1)C(=O)O [Compound D-16]
percentage variation of latency of pain sensation (10'): 29.7 ± 21% | percentage variation of latency of pain sensation (20'): 42.8 ± 18% | percentage variation of latency of pain sensation (30'): 40.1 ± 22% | percentage variation of latency of pain sensation (45'): 35.4 ± 18% | percentage variation of latency of pain sensation (60'): 33.3 ± 20% | percentage variation of latency of pain sensation (90'): 23.3% | M (10-90) ± SE, mean percentage variation of latency: 34.1 ± 17% | Power ratio with respect to morphine alone: 1.14

— patent publication US4791215A, “Derivatives of glutamic acid and aspartic acid” (priority 1984, dated 1988)
